2 compounds from patent US6906170B1 (Yeda Research and Development Co. Ltd., priority 1998, dated 2005) can be followed below.

No end group written: not given here.

Experiment [1] concerns human T cells. In words: Induction of T cell adhesion to ECM, FN, LN and CO-IV. The class given is cell-based. To be noted: T cells activated only with PMA; not shown.
Experiment [2] has as its system HT-29 cells. As to the kind of experiment: Spontaneous IL-8 secretion from intestinal epithelial cells (ELISA). The class given is cell-based, human. Further details: IL-8 secretion Average O.D.: scale not given here. To be noted: peptide 1 nM, 24 h at 37° C. As for the experimental part: Human colonic epithelial cell lines HT-29 (ATCC HTB38) and Caco-2 (ATCC […]) were obtained from the American Type Culture Collection (ATTC, Rockville, Md.). Cells were maintained in culture medium (DMEM supplemented with 10% cosmic calf serum (CSS), 2 mM glutamine, 100 U/ml penicillin, and 0.1 mg/ml streptomycin), at 37° C. and atmosphere of 5%, CO2. Cell viability was assessed using the standard MTT method.
Spontaneous or cytokine-induced secretion of IL-8 or IL-1β from intestinal epithelial cell. Test cells (HT-29 or Caco-2) were grown as confluent monolayers in 24-well tissue culture plates. […] When TNF-α was used, the peptides were added to the cells 1 hour prior to the addition of TNF-α. Following culture, the supernatants were harvested and analyzed for IL-8 or IL-1β secretion by ELISA using commercially available kits for IL-8 (Pharmingen) and IL-1β (Genzyme), according to the manufacturers' protocols.
The results in Table 1 show the O.D. readings of the ELISA assay (at 405 nm) as well as the percentage of inhibition of IL-8 secretion.

In experiment [3] the test system is human T cells. In words: IL-2-induced T cell adhesion to fibronectin (FN). The class given is cell-based. How it is done: (§1) T cell adhesion assays. Human T cells were purified from the peripheral blood of healthy donors, and T cell adhesion to immobilized protein substrates was examined as follows: Human leukocytes were isolated on a Ficoll gradient, washed, and incubated (2 h, 37° C., 7.5% CO2, humidified atmosphere) on petri dishes. The non-adherent cells were then collected and incubated (1 h, 37° C., 7.5% CO2, humidified atmosphere) on nylon wool columns (Novamed Ltd., Jerusalem, Israel). Unbound cells were eluted from the columns by extensive washings. The resulting cell population was always >92% T cells. […] After 4-6 h at 37° C., the wells were washed and ^51[Cr]-labeled T cells were added to the wells, 10^5 cells/100 μl of adhesion medium (RPMI-1640 supplemented with 0.1% BSA, 1% sodium pyruvate, 1% HEPES buffer). The microtiter plates containing the cells were incubated (30 min, 37° C.) in a humidified, 7.5% CO2 atmosphere, and then washed. The adherent cells were lysed, and the resulting supernatants were removed and analyzed in a γ-counter. For each experimental group, the results were expressed as the mean percentage ±SD of bound T cells from quadruplicate wells.
The effect of synthetic peptides, with putative amino acid compositions corresponding to fractions 2 and 8, on IL-2-induced T cell adhesion to FN. […] These three peptides were synthesized, and their effects on IL-2-induced T cell adhesion to FN were studied. […] The inhibitory dose-response curves of Ile-Val-Leu and […](SEQ ID NO:1) are similar to those of the HPLC fractions 2 and 8, respectively, from which they were derived. […]

Experiment [4] concerns human T cells. In words: IL-2-induced T cell adhesion to LN, CO-IV and FN after peptide pre-treatment. Format: cell-based. To be noted: pre-exposed to peptide 10 pg/ml, then IL-2 10 U/ml. How it is done:
The T cells were then seeded onto microtiter wells that were pre-coated (1 μg/well) with the various ECM glycoproteins. T cell adhesion was measured 30 min later.
as §1
Ile-Val-Leu, Arg-Met-Leu-Thr (SEQ ID NO:2) and […](SEQ ID NO:1) inhibit T cell adhesion to LN, CO-IV and FN. The next experiment was designed and performed to verify that the three IL-2-derived peptides indeed affect T cell interactions with ECM glycoproteins other than FN. […] The treated cells were then added to microtiter wells coated with CO-IV, LN, and FN.

Experiment [5] concerns human T cells. In words: T cell chemotaxis through FN-coated polycarbonate membranes. The class given is cell-based. To be noted: peptide 1 pg/ml, FN-coated membrane. How it is done:
T cell migration towards the chemotactic sources was assessed after 2 hr. One experiment representative of four.
Chemotaxis assays. T cell chemotaxis was performed and analyzed as previously described (Ben-Baruch et al., 1997). Briefly, the migration of human T cells (0.5×10^6 cells in adhesion medium/well) was examined in a 48-well chemotaxis micro-chamber (Neuro-Probe Inc., Cabin John, M D). The two compartments of the micro-chambers were separated by a FN-coated polycarbonate filter (5 μm pore size; Osmonics Protein Products, Livemore, Calif.). […] After incubation (120 min, 37° C., in a humidified, 7.5% CO2 atmosphere); the filters were removed, fixed, and stained with a Diff-Quik staining kit Dade, Düdingen, Switzerland). The number of migrating T cells in five high-power fields (under 500× magnification; WILD Microscope, Heerbrugg, Switzerland) was evaluated. For each group, the results are expressed as the mean number of cells in one high-power field.
Immune cell migration is the outcome of a subtle biological equilibrium existing between adhesion and detachment events. Lymphocyte adhesion to the subendothelial ECM and subsequent migration are two active processes that can overlap, but are not mutually dependent events. Adhesion and migration may depend on the ability of the T cells to continuously integrate different pro- and anti-adhesive signals via their versatile receptors for ECM, chemokines, cytokines, and possibly, also antigenic moieties.

In experiment [6] the test system is human T cells. As to the kind of experiment: PHA- or IL-2-mediated T cell proliferation. The class given is cell-based. To be noted: peptide 1 to 100 pg/ml. How it is done:
The in vitro bioassays (a) to (e) are well-known in the art. Thus, for example, assays (a), (b) and (e) may be carried out as described in the section Materials and Methods hereinafter. […] The IL-2-derived peptides or their derivatives are added to the culture wells (different amounts, 10 microliters) for the entire period of the assay. [^3H]-Thymidine is added to the microtiter 96 U-form well plates 18 h before harvesting the cultures on day 3 onto glass fiber filters and counted by liquid scintillation counter. Mean CPM and SD from quadriplicate culture are then presented.

For experiment [7], the system named is human T cells. As to the kind of experiment: Secretion of TNF-α and IFN-γ from proliferating T cells. The class given is cell-based. To be noted: peptide 1 to 100 pg/ml; not shown.

Regarding `CCCCCCCCCCCCCC(=O)O[C@@H]1[C@@H](C)[C@@]2(O)[C@@H](C=C(CO)C[C@]3(O)C(=O)C(C)=C[C@@H]23)[C@@H]2C(C)(C)[C@]12OC(C)=O` [PMA], in experiment [1], the “T cells adhered to immobilized ECM and ECM glycoproteins” value turned out to be 45±4.4%.

Consider “Arg-Met-Leu-Thr (RMLT; not fully specified (C-terminus); printed as Arg-Met-Leu-Thr) [pep3]”, for which the “IL-8 secretion Average O.D.” value in experiment [2] (ELISA O.D. at 405 nm, medium alone 488 ± 8.5, background 71 ± 1.4) was 44 ± 0.7. For the same compound, the “IL-8 secretion % inhibition” value in experiment [2] (spontaneous secretion) is 107%. Moreover, in experiment [3] (IL-2 10 U/ml), the “concentration giving maximum inhibition of IL-2-induced T cell adhesion to FN” value is “about 0.1 pg/ml” and the “concentration giving maximum inhibition of IL-2-induced T cell adhesion to FN (molar)” value is reported as ~0.2 pM. Moreover, the “inhibition of adhesion of IL-2-activated T cells to FN” value in experiment [3] (IL-2 10 U/ml, 30 min at 37° C., dose range) was “inhibited, in a dose-dependent manner”. Moreover, in experiment [3] (T cells pre-treated 1 pg/ml, washed, then IL-2 and FN-coated wells), the “anti-adhesive effect after removal of peptide prior to IL-2 activation” value was “most of the anti-adhesive effects of the three peptides persevered”. For the same compound, in experiment [3] (among the three IL-2 peptides), the “relative potency as inhibitor of IL-2-induced T cell adhesion to FN” value was “most potent inhibitor”. Also, the “inhibition of T cell adhesion to CO-IV, LN and FN” value in experiment [4] is recorded as “inhibit T cell adhesion to the three major cell-adhesive glycoproteins of the ECM”. In experiment [5] (IL-2 10 U/ml in lower compartment, p<0.01), the “inhibition of T cell migration toward IL-2” value is reported as ~90%. Also, the “inhibition of T cell chemotaxis toward MIP-1β” value in experiment [5] (MIP-1β in lower compartment) is on record as 60%. In addition, the “interference with PHA- or IL-2-mediated proliferative responses” value in experiment [6] is given as “none of them, at 1 to 100 pg/ml, interfered with either PHA- or IL-2-mediated proliferative responses”. For the same compound, the “inhibition of secretion of TNF-α and IFN-γ from proliferating T cells” value in experiment [7] was “nor did these peptides inhibit the secretion of TNF-α and IFN-γ”.
